Values of other authors in paper PMC7941644, “Identification and Development of Therapeutics for COVID-19” (ArXiv, 2021).
Like-named read-outs stand apart in the source and are kept apart here.

Tests used:
[1] = test system: COVID-19; set-up: method as in PMID 32821939; settings: moderate COVID-19
[2] = test system: COVID-19; set-up: method as in PMID 32445440
[3] = test system: COVID-19
[4] = target: MERS-CoV; settings: cell culture assays
[5] = test system: COVID-19; set-up: method as in PMID 32275812; settings: of the 53 patients evaluated; 200 mg IV day 1, 100 mg/day for 9 days; no control group
[6] = target: SARS-CoV-1; settings: cell culture assays

CCC(CC)COC(=O)[C@H](C)N[P@](=O)(OC[C@H]1O[C@@](C#N)(c2ccc3c(N)ncnn23)[C@H](O)[C@@H]1O)Oc1ccccc1 [remdesivir]
effect of treatment for five days relative to standard of care [1]: small effect of treatment | hazard ratio for death by 14 days ([2]; 95% CI 0.36 to 0.83): 0.55 | hazard ratio for death at day 29 ([2]; 95% CI 0.52 to 1.03): 0.73 | rate ratio for recovery ([2]; 95% CI 1.12 to 1.49, p < 0.001): 1.29 | serious adverse events ([2]; 131 of 532 patients, placebo 31.6%): 24.6% | rate ratio for recovery ([2]; patients with severe disease, 95% CI 1.12 to 1.52): 1.31 | recovery period ([2]; patients with severe disease, versus 18): 11 days | Kaplan-Meier estimate of mortality by 14 days ([2]; placebo 11.9%): 6.7% | Kaplan-Meier estimate of mortality at day 29 ([2]; placebo 15.2%): 11.4% | median recovery time ([2]; placebo 15 days): 10 days | patients who died during initial hospitalization ([3]; 2,750 patients in remdesivir group, control 303 of 2,708): 301 | overall rate ratio for death ([3]; meta-analysis of Solidarity and three other remdesivir studies, p = 0.20): 0.91 | rate ratio of in-hospital death ([3]; vs control, no placebo): 0.95 | IC50, polymerase and replication [4]: submicromolar | clinical improvement [5]: 68% | IC50, polymerase and replication [6]: submicromolar
